{"source": "patent US12708655B2", "about": "“Botanicals as WNT/beta-catenin activators, molecular pathway regulators, tissue regenerators and health biomarker regulators” (Arbor Life Holdings, Ltd., priority 2020, dated 2026)", "origin": "cited, not measured here", "data": [{"conditions": "compounds found in Eclipta; NA = Not Applicable; cited from earlier work", "values": [{"compound": "O=C(O)c1ccc(O)c(O)c1", "note": "[3,4-dihydroxybenzoic acid]", "Anticancer activity (AC)": "YES"}, {"compound": "O=C(O)c1ccc(O)cc1", "note": "[4-hydroxybenzoic acid]", "Anticancer activity (AC)": "YES"}, {"compound": "O=c1cc(-c2ccc(O)cc2)oc2cc(O[C@@H]3O[C@H](CO)[C@@H](O)[C@H](O)[C@H]3O)cc(O)c12", "note": "[Apigenin-7-O-glucoside]", "Anticancer activity (AC)": "YES"}, {"compound": "O=c1cc(-c2ccc(O)cc2)oc2cc(O)cc(O)c12", "note": "[Apigenin]", "Anticancer activity (AC)": "YES"}, {"compound": "O=C(/C=C/c1ccc(O)c(O)c1)c1ccc(O)cc1O", "note": "[Butein]", "Anticancer activity (AC)": "YES"}, {"compound": "Oc1ccccc1O", "note": "[Catechol]", "Anticancer activity (AC)": "YES"}, {"compound": "O=c1cc(-c2ccc(O)c(O)c2)oc2cc(O[C@@H]3O[C@H](CO)[C@@H](O)[C@H](O)[C@H]3O)cc(O)c12", "note": "[Cynaroside]", "Anticancer activity (AC)": "YES"}, {"compound": "O=c1oc2cc(O)cc(O)c2c2oc3cc(O)c(O)cc3c12", "note": "[Demethylwedelolactone]", "Anticancer activity (AC)": "YES"}, {"compound": "O=C(O)c1cc(O)c(O)c(O)c1", "note": "[Gallic acid]", "Anticancer activity (AC)": "YES"}, {"compound": "COC[C@@H]1Cc2cc(OC)c3c(c2[C@H](c2ccc(OC)c(OC)c2)[C@H]1COC)OCO3", "note": "[Hypophyllanthin]", "Anticancer activity (AC)": "YES"}, {"compound": "O=c1cc(-c2ccc(O)c(O)c2)oc2cc(O)cc(O)c12", "note": "[Luteolin]", "Anticancer activity (AC)": "YES"}, {"compound": "O[C@H]1[C@H](O)[C@@H](O)[C@H](O)[C@@H](O)[C@H]1O", "note": "[Myoinositol]", "Anticancer activity (AC)": "YES"}, {"compound": "O=C(O)c1cccnc1", "note": "[Nicotinic acid]", "Anticancer activity (AC)": "YES"}, {"compound": "C[C@@H]1O[C@@H](Oc2c(-c3ccc(O)c(O)c3)oc3cc(O)cc(O)c3c2=O)[C@H](O)[C@H](O)[C@H]1O", "note": "[Quercetin-3-rhamnoside]", "Anticancer activity (AC)": "YES"}, {"compound": "CC[C@H](/C=C/[C@@H](C)[C@H]1CC[C@H]2[C@@H]3CC=C4C[C@@H](O)CC[C@]4(C)[C@H]3CC[C@]12C)C(C)C", "note": "[Stigmasterol]", "Anticancer activity (AC)": "YES"}, {"compound": "COc1cc(O)c2c(c1)oc(=O)c1c3cc(O)c(O)cc3oc21", "note": "[Wedelolactone]", "Anticancer activity (AC)": "YES"}, {"compound": "OCc1ccc(-c2ccc(-c3cccs3)s2)s1", "note": "[α-terthienyl methanol]", "Anticancer activity (AC)": "YES"}, {"compound": "CC[C@H](CC[C@@H](C)[C@H]1CC[C@H]2[C@@H]3CC=C4C[C@@H](O)CC[C@]4(C)[C@H]3CC[C@]12C)C(C)C", "note": "[β-sitosterol]", "Anticancer activity (AC)": "YES"}, {"compound": "Demethylwedelolactone 7-glucoside", "Anticancer activity (AC)": "YES"}, {"compound": "Echinocystic acid", "Anticancer activity (AC)": "YES"}]}, {"conditions": "compounds found in Eclipta; NA = Not Applicable; cited from earlier work", "remark": "another data set of the same source", "values": [{"compound": "O=C(O)c1ccc(O)c(O)c1", "note": "[3,4-dihydroxybenzoic acid]", "Antioxidant activity (AO)": "YES"}, {"compound": "O=C(O)c1ccc(O)cc1", "note": "[4-hydroxybenzoic acid]", "Antioxidant activity (AO)": "YES"}, {"compound": "O=c1cc(-c2ccc(O)cc2)oc2cc(O[C@@H]3O[C@H](CO)[C@@H](O)[C@H](O)[C@H]3O)cc(O)c12", "note": "[Apigenin-7-O-glucoside]", "Antioxidant activity (AO)": "YES"}, {"compound": "O=c1cc(-c2ccc(O)cc2)oc2cc(O)cc(O)c12", "note": "[Apigenin]", "Antioxidant activity (AO)": "YES"}, {"compound": "O=C(/C=C/c1ccc(O)c(O)c1)c1ccc(O)cc1O", "note": "[Butein]", "Antioxidant activity (AO)": "YES"}, {"compound": "Oc1ccccc1O", "note": "[Catechol]", "Antioxidant activity (AO)": "YES"}, {"compound": "O=c1cc(-c2ccc(O)c(O)c2)oc2cc(O[C@@H]3O[C@H](CO)[C@@H](O)[C@H](O)[C@H]3O)cc(O)c12", "note": "[Cynaroside]", "Antioxidant activity (AO)": "YES"}, {"compound": "O=c1oc2cc(O)cc(O)c2c2oc3cc(O)c(O)cc3c12", "note": "[Demethylwedelolactone]", "Antioxidant activity (AO)": "YES"}, {"compound": "O=C(O)c1cc(O)c(O)c(O)c1", "note": "[Gallic acid]", "Antioxidant activity (AO)": "YES"}, {"compound": "COC[C@@H]1Cc2cc(OC)c3c(c2[C@H](c2ccc(OC)c(OC)c2)[C@H]1COC)OCO3", "note": "[Hypophyllanthin]", "Antioxidant activity (AO)": "YES"}, {"compound": "O=c1cc(-c2ccc(O)c(O)c2)oc2cc(O)cc(O)c12", "note": "[Luteolin]", "Antioxidant activity (AO)": "YES"}, {"compound": "O[C@H]1[C@H](O)[C@@H](O)[C@H](O)[C@@H](O)[C@H]1O", "note": "[Myoinositol]", "Antioxidant activity (AO)": "YES"}, {"compound": "O=C(O)c1cccnc1", "note": "[Nicotinic acid]", "Antioxidant activity (AO)": "YES"}, {"compound": "C[C@@H]1O[C@@H](Oc2c(-c3ccc(O)c(O)c3)oc3cc(O)cc(O)c3c2=O)[C@H](O)[C@H](O)[C@H]1O", "note": "[Quercetin-3-rhamnoside]", "Antioxidant activity (AO)": "YES"}, {"compound": "CC[C@H](/C=C/[C@@H](C)[C@H]1CC[C@H]2[C@@H]3CC=C4C[C@@H](O)CC[C@]4(C)[C@H]3CC[C@]12C)C(C)C", "note": "[Stigmasterol]", "Antioxidant activity (AO)": "YES"}, {"compound": "COc1cc(O)c2c(c1)oc(=O)c1c3cc(O)c(O)cc3oc21", "note": "[Wedelolactone]", "Antioxidant activity (AO)": "YES"}, {"compound": "CC1(C)CC[C@]2(C)CC[C@]3(C)C(=CC[C@@H]4[C@@]5(C)CC[C@H](O)C(C)(C)[C@@H]5CC[C@]43C)[C@@H]2C1", "note": "[β-amyrin]", "Antioxidant activity (AO)": "YES"}, {"compound": "CC[C@H](CC[C@@H](C)[C@H]1CC[C@H]2[C@@H]3CC=C4C[C@@H](O)CC[C@]4(C)[C@H]3CC[C@]12C)C(C)C", "note": "[β-sitosterol]", "Antioxidant activity (AO)": "YES"}, {"compound": "Demethylwedelolactone 7-glucoside", "Antioxidant activity (AO)": "YES"}]}]}
